“Also recorded” adds a separate entry of the source. Read-outs that look alike come from different tables or passages of the source. Bridge positions count the residues as written; N and C are the ends. Square brackets hold non-standard residues; d marks the D form. Ends that are not written are not given here. Peptide text beside a SMILES is read from it. S5 = C=CCCC[C@](C)(N)C(=O)O; Nle = CCCC[C@H](N)C(=O)O
Key:
chymotrypsin = target: T1, chymotrypsin (Bos taurus, UniProt P00766); test: Protease resistance assay, chymotrypsin (LC/MS); type: in vitro ADME; conditions: pH 7.4, 0.5 chymotrypsin, peptide 25 μM
T1 construct: purchased Sigma
Experimental: The DAD signal was set to 280 nm with an 8 nm bandwidth and MSD set to scan mode with one channel at (M+2H)/2, +1 mass units and the other at (M+3H)/3, +1 mass units. Integration of each MSD signal yielded areas under the curve of >10^8 counts. Reaction samples were composed of 5 μL peptide in DMSO (1 mM stock) and 195 μL of buffer consisting of 50 mM phosphate buffer pH 7.4 containing 2 mM CaCl2. Upon injection of the 0 hr time point sample, 2 μL of 50 ng/μL chymotrypsin (Sigma) was added and the amount of intact peptide quantitated by serial injection over time. An internal control of acetylated tryptophan carboxamide at a concentration of 100 μM was used to normalize each MSD data point. A plot of MSD area versus time yielded an exponential decay curve and half-lives were determined by nonlinear regression analysis using Prism software (GraphPad).

pepsin = test: Protease resistance assay, pepsin at pH 2; conditions: for Half-life (minutes), pepsin: pepsin at 0.5 ng/μL, peptide 25 μM, acidic conditions
Experimental: The DAD signal was set to 280 nm with an 8 nm bandwidth and MSD set to scan mode with one channel at (M+2H)/2, +1 mass units and the other at (M+3H)/3, +1 mass units. […] Reaction samples were composed of 5 μL peptide in DMSO (1 mM stock) and 195 μL of buffer consisting of 50 mM phosphate buffer pH 7.4 containing 2 mM CaCl2. Upon injection of the 0 hr time point sample, 2 μL of 50 ng/μL chymotrypsin (Sigma) was added and the amount of intact peptide quantitated by serial injection over time. An internal control of acetylated tryptophan carboxamide at a concentration of 100 μM was used to normalize each MSD data point. A plot of MSD area versus time yielded an exponential decay curve and half-lives were determined by nonlinear regression analysis using Prism software (GraphPad). The assay was also performed using trypsin and pepsin in their appropriate buffer conditions.

[1] = test system: HIV-1 strains HXBc2, ADA, and HXBc2P 3.2; test: Luciferase-based HIV-1 infectivity assay, three strains; type: cell-based
Experimental: Also the direct inhibitory activity of modified polypeptides and the antibodies targeted thereto can be quantified based upon their capacity to directly block HIV infection of CD4-positive and CCR5-expressing canine thymus cells. […] The identical experiment is performed with the amphotropic murine leukemia virus (AMLV), to monitor for any nonspecific effects of the modified polypeptides or antibodies.
(§1) HIV-1 infectivity assays were performed using known methods (Madani et al., 2007 Inhibition of human immunodeficiency virus envelope glycoprotein-mediated single cell lysis by low-molecular-weight antagonists of viral entry. J Virol, 81: 532-538; and Si et al., 2001 Envelope glycoprotein determinants of neutralization resistance in a simian-human immunodeficiency virus (SHIV-HXBc2P 3.2) derived by passage in monkeys. J Virol, 75:4208-4218; both incorporated herein by reference). […] Virus-containing supernatants were harvested 24-30 hr after transfection, filtered, aliquoted, and stored at −80° C. Target cells were seeded at a density of 6×10^3 cells/well in 96-well plates 24 hours prior to infection. Cf2Th-CD4-CCR5 cells were used for infections by viruses with the ADA, YU2, and A-MLV envelope glycoproteins, and Cf2Th-CD4-CXCR4 cells used for HXBc2, HXBc2P 3.2, and A-MLV. On the day of infection, the structured peptides (0-3 μM) were added to recombinant viruses (10,000 RT units) to a final volume of 50 μL and incubated at 37° C. for 30 min. Media was then removed and the target cells incubated with virus-peptide mixture for 48 hours at 37° C. The media was again removed and the cells lysed with 30 μL of passive lysis buffer (Promega) and three freeze-thaw cycles.
Recombinant HIV-1 bearing the envelope glycoproteins from three distinct HIV-1 strains, HXBc2, ADA, and HXBc2P 3.2, and a negative control virus bearing the amphotropic murine leukemia virus (A-MLV) envelope glycoproteins, were evaluated.

4E10 antibody = test: Competitive 4E10 antibody binding by ELISA; design: species or system human; conditions: competition with wild-type MPER peptide probe
Experimental: Half maximal inhibitory concentrations (IC50s) were determined by competitive enzyme-linked assay (ELISA) using a constant concentration of biotinylated peptide and 4E10-IgG with a variable concentration of gp41 peptides. Microwells were coated overnight at 4° C. with 50 μl of PBS containing neutravidin (4 μg/ml). Wells were washed twice with PBS containing 0.05% Tween 20, and blocked with 4% non-fat dry milk (NFDM) in PBS for 45 min at 37° C. Meanwhile, a mixture of a biotinylated 4E10-peptide epitope, biotin-PEG2-[…], (20 nM), IgG 4E10 (0.2 nM), and the competing peptide analogue (threefold dilution series starting at 10 μM) in 0.4% NFDM, 0.02% Tween and PBS was incubated in a separate 96-well plate at 37° C. for 2 h. After washing the blocked plate, the mixture of 4E10, biotinylated peptide and competing structured HIV-1 gp41 peptide was added to the wells. After 20 min at room temperature, the wells were washed five times, and a 1:500 dilution of Goat Anti-Human IgG F(ab′)2, Peroxidase Conjugate was added. […] After 20 min, wells containing TMB solution were stopped by adding 50 μl of H2SO4 (2 M), and the absorbance at 450 nm was read on a microplate reader (Molecular Devices). The concentration of competitor peptide corresponding to a half-maximal signal (IC50) was determined by interpolation of the resulting binding curve using GraphPad Prism. […]

Chymotrypsin, pH 7 [2] = test: Chymotrypsin, pH 7
Description: (§2) Title: Chymotrypsin, pH 7
First reader's note: The table also serves as the legend of the plot of fraction intact over time; the line and marker symbols are left out.

Chymotrypsin, pH 7 [3] = test: Chymotrypsin, pH 7; remark: listed apart in the source
Description: Table printed on a drawing sheet, FIG. 17D
as §2
First reader's note: The table also serves as the legend of the plot below it (fraction intact over time); the plot symbols before the compound names are left out.

[4] = Circular dichroism, α-helical content; type: physicochemical
Experimental: The α-helicity of stapled modified polypeptides was compared to their unmodified counterparts by circular dichroism. CD spectra were obtained on an Aviv spectropolarimeter at 20° C. using the following standard measurement parameters: wavelength, 190-260 nm; step resolution, 0.5 nm; speed, 20 nm/sec; accumulations, 10; response, 1 sec; bandwidth, 1 nm; path length, 0.1 cm. The α-helical content of each peptide was calculated by dividing the mean residue ellipticity [θ]222obs, by the reported [θ]222obs for a model helical peptide (Forood, B., E. J. Feliciano, and K. P. Nambiar, PNAS, 1993. 90(3): p. 838-842; J. Martin Scholtz, Biopolymers, 1991. 31(13): p. 1463-1470; Lawless, M. K., et al., Biochemistry, 1996. 35(42): p. 13697-13708) or using, for example, the Aviv machine using CDNN software developed by Brohm in order to deduce five different secondary structure fractions (helix, parallel and antiparallel beta-sheet, beta-turn and random coil). Protein Engineering, 1992. 5(3); p. 191-195
In order to evaluate secondary structure improvements of hydrocarbon-stapled peptides, we record and analyze circular dichroism (CD) spectra on an Aviv Biomedical spectrometer (model 410), as described above. […] The CD spectra are initially plotted as wavelength versus millidegree. […] After conversion to mean residue ellipticity, percent α-helicity can be calculated using the equation, % helicity=100×[θ]222/^max[θ]222, where ^max[θ]222=−40,000×[1−(2.5/number of amino acid residues)]. We also employ the curve-fitting CDDN software that is bundled with our spectrometer to calculate the relative fractions of secondary structure including α-helix, parallel and antiparallel β-sheet, β-turn and random coil.

[5] = test system: HIV-1 HXBc2 virus bearing HR1 double mutations V38A/N42T and V38E/N42S; test: HIV-1 infectivity assay, enfuvirtide-resistant HR1 double mutants; type: cell-based
Experimental: as §1

CCCC[C@H](NC(C)=O)C(=O)N[C@H](C(=O)N[C@@H](Cc1c[nH]c2ccccc12)C(=O)N[C@@H](CCCC)C(=O)N[C@@H](CCC(=O)O)C(=O)N[C@@H](Cc1c[nH]c2ccccc12)C(=O)N[C@@]1(C)CCCC=CCCC[C@@](C)(C(=O)N[C@@H](CC(N)=O)C(=O)N[C@@H](Cc2ccc(O)cc2)C(=O)N[C@H](C(=O)N[C@@H](CO)C(=O)N[C@@H](CC(C)C)C(=O)N[C@H](C(=O)N[C@@H](Cc2c[nH]cn2)C(=O)N[C@@H](CO)C(=O)N[C@@H](CC(C)C)C(=O)N[C@H](C(=O)N[C@@H](CCC(=O)O)C(=O)N[C@@H](CCC(=O)O)C(=O)N[C@@H](CO)C(=O)N[C@@H](CCC(N)=O)C(=O)N[C@@H](CC(N)=O)C(=O)N[C@@H](CCC(N)=O)C(=O)N[C@@]2(C)CCCC=CCCC[C@@](C)(C(=O)N[C@@H](CCC(N)=O)C(=O)N[C@@H](CCC(=O)O)C(=O)N[C@@H](CC(C)C)C(=O)N[C@@H](CC(C)C)C(=O)N[C@@H](CCC(=O)O)C(N)=O)NC(=O)[C@H](CC(N)=O)NC(=O)[C@H](CCCCN)NC(=O)[C@H](CCC(=O)O)NC2=O)[C@@H](C)CC)[C@@H](C)CC)[C@@H](C)O)NC(=O)[C@H]([C@@H](C)CC)NC(=O)[C@H](CCC(=O)O)NC(=O)[C@H](CCCNC(=N)N)NC1=O)[C@@H](C)O [SAH-gp41(626-662)(B, F)] (Ac-[Nle]TW[Nle]EW[S5]REI[S5]NYTSLIHSLIEESQNQ[S5]EKN[S5]QELLE-NH2; staple 7-11, 28-32)
Half-Life (chymotrypsin): 21.2 h
half-life at 25 μM (pepsin; pepsin (isolated protease) in buffer, pH 2): 15.5 h
anti-HIV-1 (anti-viral) activity, in words [1]: relatively impaired anti-viral activity

SEQ ID NO:135: i, i+4 singly stapled SAH-MPER peptide stapled in a similar position (ELDKWASLWNWFNITN[S5]LWY[S5]K-NH2; staple 17-21)
competition for 4E10 antibody binding, in words (4E10 antibody): superior to the wild-type MPER peptide

SEQ ID NO:136: i, i+3 singly stapled SAH-MPER peptide (ELDKWASLWNWFNITN[S5]LW[S5]IK-NH2; staple 17-20)
competition for 4E10 antibody binding, in words (4E10 antibody): compete more effectively for binding than an i, i+4 stapled peptide stapled in a similar position; also recorded: superior to the wild-type MPER peptide

Sifuvirtide
Half-Life (Chymotrypsin, pH 7 [2]): 2 min

enfuvirtide [listing 1 of 2 here]
Half-life (minutes), pepsin (pepsin): 3320 min
anti-HIV-1 (anti-viral) activity, in words [1]: relatively impaired anti-viral activity
Half-Life (Chymotrypsin, pH 7 [3]): 16.73 h

enfuvirtide [listing 2 of 2 here]
% helicity at pH 2 ([4]; pH 2): 49%
% helicity at pH 7 ([4]; pH 7): 19%
calculated α-helical content ([4]; physiologic pH): ~25%
Half-life (minutes), pepsin (pepsin): 4 min
functional activity against HR1 double-mutant HIV-1, in words [5]: no functional activity

Reference: patent US10273290B2, “Hydrocarbon double-stapled stabilized HIV-1 GP41 heptad repeat domain peptides” (DANA-FARBER CANCER INSTITUTE, INC., priority 2009, dated 2019)
